Here are results for 12 compounds from the OPERA property sets (Mansouri et al. 2018).

Broadly, the logP is the decadic logarithm of the partition coefficient of the neutral form, usually between octanol and water. Read a low logP as a more hydrophilic compound. For `COc1c(OC)c(OC(C)=O)c2c(C#N)cccc2c1OC(C)=O`, the lipophilicity (logP) was 2.51. Turning to `COc1ccc2c(OC(C)=O)c(OC)c(OC)c(OC(C)=O)c2c1`, the logP stood at 2.39. `COc1c(OC)c(OC(=O)C(C)(C)C)c2ccccc2c1OC(=O)C(C)(C)C` returned a logP of 5.69. In turn, `COc1c(OC)c(OC(C)=O)c2cc(C#N)ccc2c1OC(C)=O` gave a logP of 2.28. With `COc1c(OC)c(OC(C)=O)c2cc(Br)ccc2c1OC(C)=O` the figure was 3.39. With `COc1c(OC)c(OC(C)=O)c2cc(Cl)ccc2c1OC(C)=O` the figure was 3.26.

Take `COc1c(OC)c(OC(C)=O)c2c(OC)cccc2c1OC(C)=O`: the log partition coefficient (logP) worked out at 2.43. With `COc1c(OC)c(OC(C)=O)c2cc(F)ccc2c1OC(C)=O` the figure was 2.75; with `COc1c(OC)c(OC(C)=O)c2ccccc2c1OC(C)=O`, 2.39; with `COc1c(OC)c(OC(=O)C(C)C)c2ccccc2c1OC(=O)C(C)C`, 4.61.

In turn, `COc1c(OC)c(OC(C)=O)c2c(Cl)cccc2c1OC(C)=O` gave a logP of 3.16. The compound `COc1c(OC)c(OC(C)=O)c2cc(C)ccc2c1OC(C)=O` had a log partition coefficient (logP) of 2.86.
